Reference: patent publication US20240325381A1 (GUANGZHOU INSTITUTES OF BIOMEDICINE AND HEALTH, CHINESE …, priority 2021, published 2024)

Key:
Type in all cases: cell-based
[1] = system: neural precursor cells labeled with LC3-GFP and mito-DsRed; experiment: Co-localization of mitochondria with LC3-GFP labeled autophagosomes (confocal microscope); conditions: 15 μM flunarizine, 12 hours
Protocol: The neural precursor cells labeled with LC3-GFP and mito-DsRed were plated on the glass slides, and the surface coverage of the neural precursor cells on the glass slides was 80%. […] Then, the results were detected with a confocal microscope.

[2] = system: Mito-DsRed-labeled neural precursor cells; experiment: Mitochondrial efflux (mitochondria, lysosome and cell membrane overlap); conditions: 15 μM flunarizine, 24 hours; Lysotraker DeepRed, FM1-43
Protocol: Mito-DsRed-labeled neural precursor cells were plated on a glass slide, and the surface coverage of the neural precursor cells on the glass slide was 80%. […] The final concentration was 15 μM. The lysosomes were labeled with Lysotraker DeepRed, the cell membranes were labeled with FM1-43, and then the results were detected with a confocal microscope.

[3] = system: neural precursor cells labeled with LAMP1-GFP and mito-DsRed; experiment: Mitochondria entering lysosomes (LAMP1-GFP / mito-DsRed overlap); conditions: 15 μM flunarizine, 12 hours
Protocol: The neural precursor cells labeled with LAMP1-GFP and mito-DsRed were plated on a glass slide, and the surface coverage of the neural precursor cells on the glass slide was 80%. […] Then, the results were detected with a confocal microscope.

[4] = system: Mito-GFP-labeled neural precursor cells; experiment: Clearance of mitochondria by flunarizine in mito-GFP-labeled neural precursor cells (confocal microscopy); conditions: for mitochondrial morphology in neural precursor cells: 3 days
Protocol: Mito-GFP-labeled neural precursor cells were plated on a 6-well plate, and the surface coverage of the neural precursor cells on the 6-well plate was 80%. […] Then, the cells were detected with a confocal microscopy and the clearance efficiency of the mitochondrial was observed.
The mito-GFP-labeled neural precursor cells were plated on a 6-well plate, and the surface coverage of the neural precursor cells on the 6-well plate was 80%. […] Then, the results were detected with a confocal microscope and the efficiency of the mitochondrial clearance was observed.

[5] = system: Mito-GFP-labeled neural precursor cells; experiment: Mitochondrial clearance after knockdown of classic mitophagy core genes in neural precursor cells; conditions: 15 μM flunarizine, 3 days; shTRC, shATG5-a/b, shPINK1-a/b, shFUNDC1-a/b
Protocol: The corresponding classic mitophagy core genes (including shTRC, shATG5-a, shATG5-b, shPINK1-a, shPINK1-b, shFUNDC1-a, and shFUNDC1-b) in mito-GFP-labeled neural precursor cells were knocked down. Then, the cells were plated on a glass slide, the surface coverage of neural precursor cells on the glass slide was 80%. […] Thereafter, the cells were detected with a confocal microscope. The specific results are illustrated in FIG. 3B and FIG. 3C.

[6] = system: Mito-GFP-labeled mouse embryonic fibroblasts (MEF cells); experiment: Mitochondrial clearance in MEF cells with mitophagy core genes knocked off; conditions: 15 μM flunarizine, 3 days; WT, ATG5, PARK2, FUNDC1
Protocol: Mito-GFP-labeled mouse embryonic fibroblasts (MEF cells) were plated on a glass slide. The corresponding classic mitophagy core genes (including WT, ATG5, PARK2, and FUNDC1) in the MEF cells were knocked off. The surface coverage of the cells on the glass slide was 80%. […] Then, the cells were detected with a confocal microscope.

Fc1ccc(C(c2ccc(F)cc2)N2CCN(C/C=C/c3ccccc3)CC2)cc1 [flunarizine]
co-localization of mitochondria with LC3-GFP labeled autophagosomes [1]: not co-localized with LC3-GFP labeled autophagosomes
mitochondrial efflux vesicles on the cell surface [2]: efflux vesicles wrapped around mitochondria were formed
overlap of LAMP1 and mito (mitochondria entering lysosomes) [3]: wrapped by lysosomes
removal of intracellular mitochondria ([4]; 15 μM flunarizine, 3 days of treatment, 80% surface coverage): substantially completely removed
concentration that can effectively remove the mitochondria in the cells ([4]; after 3 days of treatment, tested 5, 10, 15, 20, 25 μM): above 10 μM
removal of intracellular mitochondria ([4]; contact time more than 3 days): completely removed
mitochondrial morphology in neural precursor cells ([4]; final concentration 15 μM): basically not observed
mitochondrial morphology in neural precursor cells ([4]; final concentration 20 μM): basically not observed
mitochondrial morphology in neural precursor cells ([4]; final concentration 25 μM): basically not observed
mitochondrial clearance after knockdown of mitophagy core genes [5]: knockdown of related genes could not inhibit mitochondrial clearance
mitochondrial clearance in MEF cells with mitophagy genes knocked off [6]: knockdown of mitophagy-related genes cannot inhibit mitochondrial clearance
